Measured values from the supplement of paper PMC10721915.
± gives the standard deviation of the averaged measurements.

Experiments:
Assay in all cases: relative cell growth vs untreated control (GI, NCI-DTP normalisation with time-zero) (fraction of control growth); higher = more growth / less inhibition
Settings in all cases: treatment time: 120 h
[1] = tested on: ASPC1
Experimental: (§1)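 Cancer cell lines in 96-well plates were treated 48 h after seeding with M4076 (ATM inhibitor) and berzosertib (ATR inhibitor), alone or mixed, in 4-fold dilutions for 120 h. Protein was read by sulforhodamine B staining, background-subtracted and normalised NCI-DTP style to untreated control growth. Rows with one concentration equal to 0 are monotherapy.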

[2] = tested on: RDES
Experimental: as §1

[3] = tested on: U2OS
Experimental: as §1

[4] = tested on: PANC1
Experimental: as §1

[5] = tested on: MDAMB231
Experimental: as §1

[6] = tested on: MDAMB435
Experimental: as §1

[7] = tested on: RAMOS
Experimental: as §1

[8] = concentration of first compound 0.0195 µM, concentration of partner 0 M
[9] = concentration of first compound 0.0195 µM, concentration of partner 0.2 µM
[10] = concentration of first compound 0.0781 µM, concentration of partner 0 M
[11] = concentration of first compound 0.0781 µM, concentration of partner 0.2 µM
[12] = concentration of first compound 0.313 µM, concentration of partner 0 M
[13] = concentration of first compound 0.313 µM, concentration of partner 0.2 µM
[14] = concentration of first compound 1 µM, concentration of partner 0 M
[15] = concentration of first compound 1 µM, concentration of partner 0.0195 µM
[16] = concentration of first compound 1 µM, concentration of partner 0.0781 µM
[17] = concentration of first compound 1 µM, concentration of partner 0.313 µM
[18] = concentration of first compound 1 µM, concentration of partner 1.25 µM
[19] = concentration of first compound 1 µM, concentration of partner 5 µM
[20] = concentration of first compound 1.25 µM, concentration of partner 0 M
[21] = concentration of first compound 1.25 µM, concentration of partner 0.2 µM
[22] = concentration of first compound 5 µM, concentration of partner 0 M
[23] = concentration of first compound 5 µM, concentration of partner 0.2 µM
[24] = concentration of first compound 0.2 µM, concentration of partner 0 M

COc1cc2ncc3c(c2cc1-c1cn(C)nc1C)n(-c1c(F)cncc1OC)c(=O)n3C [M4076] + CNCc1ccc(-c2cc(-c3nc(-c4ccc(S(=O)(=O)C(C)C)cc4)cnc3N)on2)cc1 [berzosertib] showed a relative cell growth [1, 8] of 1.2 ± 0.16, a relative cell growth [1, 9] of 0.322 and a relative cell growth [1, 10] of 1.08 ± 0.15. For the same molecule, the relative cell growth [1, 11] was 0.194, the relative cell growth [1, 12] was 1.2 ± 0.16 and the relative cell growth [1, 13] was 0.0757. For the same molecule, the relative cell growth [1, 14] was 0.84, the relative cell growth [1, 15] was 0.803 and the relative cell growth [1, 16] was 0.418. It also gave a relative cell growth [1, 17] of -0.0794, a relative cell growth [1, 18] of -0.118 and a relative cell growth [1, 19] of -0.115. For the same molecule, the relative cell growth [1, 20] was 0.943 ± 0.13, the relative cell growth [1, 21] was 0.0458 and the relative cell growth [1, 22] was 0.675 ± 0.092. For the same molecule, the relative cell growth [1, 23] was 0.0314, the relative cell growth [2, 8] was 1.1 ± 0.013 and the relative cell growth [2, 9] was 1.16. For the same molecule, the relative cell growth [2, 10] was 1.01 ± 0.012, the relative cell growth [2, 11] was 1.16 and the relative cell growth [2, 12] was 0.941 ± 0.011. For the same molecule, the relative cell growth [2, 13] was 1.13, the relative cell growth [2, 14] was 0.836 and the relative cell growth [2, 15] was 0.933. It also gave a relative cell growth [2, 16] of 0.872, a relative cell growth [2, 17] of 0.395 and a relative cell growth [2, 18] of 0.0966. The relative cell growth [2, 19] was -0.0939, the relative cell growth [2, 20] was 0.877 ± 0.011 and the relative cell growth [2, 21] was 0.973. For the same molecule, the relative cell growth [2, 22] was 0.681 ± 0.0083, the relative cell growth [2, 23] was 0.706 and the relative cell growth [3, 8] was 1.1 ± 0.054. For the same molecule, the relative cell growth [3, 9] was 0.876, the relative cell growth [3, 10] was 1.09 ± 0.053 and the relative cell growth [3, 11] was 0.865. The relative cell growth [3, 12] was 0.972 ± 0.048, the relative cell growth [3, 13] was 0.504 and the relative cell growth [3, 14] was 0.916. The relative cell growth [3, 15] was 0.798, the relative cell growth [3, 16] was 0.611 and the relative cell growth [3, 17] was 0.191. For the same molecule, the relative cell growth [3, 18] was -0.111, the relative cell growth [3, 19] was -0.131 and the relative cell growth [3, 20] was 0.935 ± 0.046. The relative cell growth [3, 21] was 0.312, the relative cell growth [3, 22] was 0.852 ± 0.042 and the relative cell growth [3, 23] was 0.229. For the same molecule, the relative cell growth [4, 8] was 1.27 ± 0.16, the relative cell growth [4, 9] was 0.992 and the relative cell growth [4, 10] was 1.2 ± 0.15. For the same molecule, the relative cell growth [4, 11] was 1.36, the relative cell growth [4, 12] was 1.45 ± 0.18 and the relative cell growth [4, 13] was 0.541. For the same molecule, the relative cell growth [4, 14] was 0.96, the relative cell growth [4, 15] was 0.764 and the relative cell growth [4, 16] was 0.526. It also gave a relative cell growth [4, 17] of 0.0924, a relative cell growth [4, 18] of -0.0345 and a relative cell growth [4, 19] of -0.0793. The relative cell growth [4, 20] was 1.1 ± 0.14, the relative cell growth [4, 21] was 0.278 and the relative cell growth [4, 22] was 0.743 ± 0.095. It also gave a relative cell growth [4, 23] of 0.309, a relative cell growth [5, 8] of 1.06 ± 0.085 and a relative cell growth [5, 9] of 1.1. For the same molecule, the relative cell growth [5, 10] was 1.02 ± 0.082, the relative cell growth [5, 11] was 0.932 and the relative cell growth [5, 12] was 0.93 ± 0.074. It also gave a relative cell growth [5, 13] of 0.499, a relative cell growth [5, 14] of 0.858 and a relative cell growth [5, 15] of 0.907. For the same molecule, the relative cell growth [5, 16] was 0.708, the relative cell growth [5, 17] was 0.198 and the relative cell growth [5, 18] was -0.00535. It also gave a relative cell growth [5, 19] of -0.032, a relative cell growth [5, 20] of 0.775 ± 0.062 and a relative cell growth [5, 21] of 0.328. It also gave a relative cell growth [5, 22] of 0.695 ± 0.056, a relative cell growth [5, 23] of 0.42 and a relative cell growth [6, 8] of 1.09 ± 0.14. It also gave a relative cell growth [6, 9] of 1.01, a relative cell growth [6, 10] of 1.09 ± 0.14 and a relative cell growth [6, 11] of 1.05. For the same molecule, the relative cell growth [6, 12] was 1.04 ± 0.13, the relative cell growth [6, 13] was 0.622 and the relative cell growth [6, 14] was 0.988. For the same molecule, the relative cell growth [6, 15] was 1.01, the relative cell growth [6, 16] was 0.701 and the relative cell growth [6, 17] was 0.14. For the same molecule, the relative cell growth [6, 18] was -0.00922, the relative cell growth [6, 19] was -0.0254 and the relative cell growth [6, 20] was 1.03 ± 0.13. It also gave a relative cell growth [6, 21] of 0.411, a relative cell growth [6, 22] of 0.92 ± 0.12 and a relative cell growth [6, 23] of 0.185. For the same molecule, the relative cell growth [7, 8] was 1.04 ± 0.031, the relative cell growth [7, 9] was 1.14 and the relative cell growth [7, 10] was 1.12 ± 0.034. The relative cell growth [7, 11] was 1.17, the relative cell growth [7, 12] was 1.01 ± 0.03 and the relative cell growth [7, 13] was 1.12. For the same molecule, the relative cell growth [7, 14] was 0.888, the relative cell growth [7, 15] was 0.918 and the relative cell growth [7, 16] was 0.945. It also gave a relative cell growth [7, 17] of 0.751, a relative cell growth [7, 18] of 0.0625 and a relative cell growth [7, 19] of 0.0153. It also gave a relative cell growth [7, 20] of 0.914 ± 0.028, a relative cell growth [7, 21] of 1.09 and a relative cell growth [7, 22] of 0.778 ± 0.023. It also gave a relative cell growth [7, 23] of 0.915.

CNCc1ccc(-c2cc(-c3nc(-c4ccc(S(=O)(=O)C(C)C)cc4)cnc3N)on2)cc1 [berzosertib] + COc1cc2ncc3c(c2cc1-c1cn(C)nc1C)n(-c1c(F)cncc1OC)c(=O)n3C [M4076] showed a relative cell growth [1, 8] of 1.3 ± 0.23, a relative cell growth [1, 10] of 1.07 ± 0.19 and a relative cell growth [1, 24] of 0.344. For the same molecule, the relative cell growth [1, 12] was 0.0569 ± 0.01, the relative cell growth [1, 20] was -0.0955 ± 0.017 and the relative cell growth [1, 22] was -0.077 ± 0.013. The relative cell growth [2, 8] was 1.15 ± 0.026, the relative cell growth [2, 10] was 1.14 ± 0.026 and the relative cell growth [2, 24] was 1.01. The relative cell growth [2, 12] was 0.873 ± 0.02, the relative cell growth [2, 20] was 0.254 ± 0.0058 and the relative cell growth [2, 22] was -0.0925 ± 0.0021. It also gave a relative cell growth [3, 8] of 1.07 ± 0.072, a relative cell growth [3, 10] of 0.977 ± 0.066 and a relative cell growth [3, 24] of 0.906. For the same molecule, the relative cell growth [3, 12] was 0.9 ± 0.061, the relative cell growth [3, 20] was 0.0428 ± 0.0032 and the relative cell growth [3, 22] was -0.0411 ± 0.0025. It also gave a relative cell growth [4, 8] of 1.12 ± 0.1, a relative cell growth [4, 10] of 1.27 ± 0.11 and a relative cell growth [4, 24] of 0.892. The relative cell growth [4, 12] was 0.482 ± 0.043, the relative cell growth [4, 20] was 0.094 ± 0.0084 and the relative cell growth [4, 22] was -0.0643 ± 0.0058. It also gave a relative cell growth [5, 8] of 1.06 ± 0.1, a relative cell growth [5, 10] of 1.09 ± 0.1 and a relative cell growth [5, 24] of 0.976. The relative cell growth [5, 12] was 0.775 ± 0.073, the relative cell growth [5, 20] was 0.0906 ± 0.0085 and the relative cell growth [5, 22] was -0.057 ± 0.0054. The relative cell growth [6, 8] was 1.07 ± 0.13, the relative cell growth [6, 10] was 1.06 ± 0.13 and the relative cell growth [6, 24] was 0.893. The relative cell growth [6, 12] was 0.656 ± 0.082, the relative cell growth [6, 20] was -0.0138 ± 0.0017 and the relative cell growth [6, 22] was -0.0273 ± 0.0034. It also gave a relative cell growth [7, 8] of 1.1 ± 0.036, a relative cell growth [7, 10] of 1.11 ± 0.036 and a relative cell growth [7, 24] of 1.16. It also gave a relative cell growth [7, 12] of 1.05 ± 0.034, a relative cell growth [7, 20] of 0.322 ± 0.011 and a relative cell growth [7, 22] of 0.103 ± 0.0034.
